Measured values reported in article PMC8395767, “Worsening of the Toxic Effects of (±)Cis-4,4′-DMAR Following Its Co-Administration with (±)Trans-4,4′-DMAR: Neuro-Behavioural, Physiological, Immunohistochemical and Metabolic Studies in Mice” (International Journal of Molecular Sciences, 2021).

Tests used:
[1] = test system: mice; assay: Sweating and salivation (observation, present or not); assay type: in vivo; details: n=6 mice
Experimental: The effects of (±)cis-4,4′-DMAR, (±)trans-4,4′-DMAR and their co-administration were investigated by a protocol widely used in studies of “safety pharmacology” for the preclinical characterization of new molecules in rodents. This protocol includes a series of observational behavioural tests carried out in a consecutive manner that monitor the animal responses up to 5 h after compound injections. In the present study, we reported the observation of physiological (sweating, salivation, core temperature) and neuro-behavioural (detection of psychomotor agitation, spontaneous and stimulated aggressiveness, convulsions) changes occurring in mice after injection of (±)cis-4,4′-DMAR, (±)trans-4,4′-DMAR and their co-administration. Before pharmacological treatment the mouse was placed on a square plate (30 cm× 30 cm) raised from the ground (20 cm) and left free to move on the plate for 10 min (habituation period). The animal was then injected with the vehicle, substances alone ((±)cis-4,4′-DMAR or (±)trans-4,4′-DMAR) or in cis + trans co-administration and placed on the plate. From this moment, the recording time of the physiological and neuro-behavioural responses started, and these were detected in 5-min sessions.
After the first 5 min, the animal was removed from the plate; the body core temperature was then measured, and the aggression tests were performed. The 5-min observation period was repeated at 15–30–60–90–120–180–240–300. Psychomotor agitation in the mouse was not simply related to an increase in spontaneous locomotion itself, but by an “unusual hyperactivity” which was characterised by rapid and sudden horizontal displacements in all directions, sustained turning behaviour, involuntary falls from the high plate during the evaluation of the tests, stereotyped movements and rearing activity. Mouse sweating and salivation were reported only if present or not. The core temperature was determined using a probe (1 mm diameter) that was gently inserted after lubrication with liquid Vaseline into the rectum of the mouse (to about 2 cm) and left in position until the temperature stabilised (about 10 s). The probe was connected to a digital thermometer. Spontaneous aggressive response was measured based on the number of times a mouse bit a grey cloth put in front of its snout. During the test, each mouse was free to move within the cage. In the case of stimulated aggressiveness, each mouse was manually restrained and held in a supine position following which an object was brought near the mouth. For both spontaneous and stimulated aggressive behaviour tests, a grey cloth was placed in front of the nose of each mouse 10 consecutive times (score 0/10 not aggressive, score 10/10 very aggressive). Convulsions were defined as a loss of righting reflexes for at least 5 s, combined with the presence of body tremors and clonic or tonic limb movements. Deaths caused by 4-4’-DMAR injection occurring during the observation period (5 h) were also reported as frequency (%) and time of death (min). Experiments were conducted inside the LARP (Centralised Preclinical Research Laboratory, University of Ferrara, Ferrara, Italy) in a thermo-stated (temperature 20–22 °C, humidity about 45–55%) and light controlled (about 150 lux) room, in which there was a background noise of about 40 ± 4 dB. The experiments, conducted in blind by trained observers working together in pairs, were videotaped and eventually analysed off-line by a different trained operator. The experiments were performed between 8:30 a.m. and 2:00 p.m.
Sweating and salivation were expressed as frequency (e.g., % of animals that developed symptoms); psychomotor agitation was expressed as frequency (% of animals) and duration (total time in mins). Core temperature values were expressed as the difference between control temperature (before injection) and temperature following drug administration (Δ°C). […]

[2] = test system: NOX-2; assay: Immunohistochemistry, frontal cortex: NOX-2; assay type: in vivo, mice; details: vs control
Source text: Following the acute death or the sacrifice of the animals (after 5-h observation period by dislocation of the spine), brains were taken. These were fixed in 4% buffered formalin and then sampled and incorporated into the paraffin (Leica ASP300 processor, Histoline TEC2900 incorporator; Leica Microsystems Srl, Buccinasco, Milano, Italy). Subsequently, the cut (performed with the Leica HistoCore autocut microtome; Leica Microsystems Srl, Buccinasco, Milano, Italy) was designed to create sections with a thickness of 5 µm for each sample.
On 5-µm-thick paraffined […] sections, we evaluated the expression of a panel of markers: heat shock proteins (HSP27, HSP70, HSP90), SMAC/DIABLO, NF-kB, iNOS, NOX-2, NT, 8-OHDG.
We used a detection system composed of a biotinylated secondary antibody and HRP-conjugated streptavidin (4plus HRP Universal Detection, Biocare Medical). […] In the pictures (sections of the frontal cortex; Figure 3, Figure 4 and Figure 5) to evaluate the variation in the expression of markers (Smac, NOX2, iNOS, 8-OHdG, NT, HSP27, HSP70, HSP90) following treatments, the change in intensity of brown colour (staining of the immunohistochemical technique) in the control and treated tissue was measured. Quantification of Smac, NOX2, iNOS, 8-OHdG, NT, HSP27, HSP70 and HSP90 positive-stained areas was performed by the ImageJ software (imagej.nih.gov/ij/ Accessed date 12 May 2020). […]

[3] = test system: DAT; parameters: method as in PMID 25331619; details: rat brain tissue, lower potency than (±)cis-4,4′-DMAR; cited from earlier work
[4] = 30 mg/kg i.p., listed as (±)cis-4,4′-DMAR

Row | SMILES | Salivation Frequency % (n° of mice) ([1]; 30 mg/kg i.p.) | Sweating Frequency % (n° of mice) ([1]; 30 mg/kg i.p.) | Salivation Frequency % (n° of mice) [1, 4] | Sweating Frequency % (n° of mice) [1, 4] | Salivation Frequency % (n° of mice) ([1]; 60 mg/kg i.p.) | Sweating Frequency % (n° of mice) ([1]; 60 mg/kg i.p.) | Sweating Frequency % (n° of mice) ([1]; 60 mg/kg i.p., listed as (±)cis-4,4′-DMAR) [%] | Immunoreactivity of NOX-2 in the frontal cortex ([2]; 60 mg/kg) | Immunoreactivity of NOX-2 in the frontal cortex ([2]; 10 and 30 mg/kg) | Mode of action at DAT [3]
1 | Cc1ccc(C2OC(N)=NC2C)cc1 (stereo not drawn) [cis-4,4’-DMAR, 4-methyl-5-(4-methylphenyl)-4,5-dihydrooxazol-2-amine] | 100% (6) | 100% (6) | All animals | All animals | 50% (3) | 100% (6) | 50 | did not affect | reduced | 
2 | Cc1ccc(C2OC(N)=NC2C)cc1 (stereo not drawn) [trans-4,4’-DMAR, 4-methyl-5-(4-methylphenyl)-4,5-dihydrooxazol-2-amine] |  |  |  |  |  |  |  |  |  | substrate-type releaser
